Assays:
2D7 capture antibody = experiment: Sandwich ELISA with conformation sensitive 2D7 capture and 1D4 detection antibodies; assay type: binding; conditions: CCR5 from HEK-293 cells; 30 minutes at room temperature; sample 1 = DDM, CHAPS, DOPC/POPC
Method: The primary (capture) antibody was diluted to 1 μg/mL in 1×PBS pH 7.2 and 100 μL was added to each well of the microplate (Costar clear-bottom, black 96-well). The plate was stored overnight at 4° C. The plate wells were washed twice with PBS containing 0.05% Tween-20 and once with PBS and 200 μL of 10 mg/mL (1%) fatty-acid free BSA in PBS. The plate was either incubated at room temperature for 2 hours or overnight at 4° C. G-protein coupled receptor (GPCR)—NABBs were added to the respective wells in a final volume of 100 μL. GPCR-NABB was diluted in PBS containing 1 mg/mL (0.1%) BSA. The microplate was incubated at 4° C. overnight to ensure complete binding of epitope on the GPCR-NABB to the capture antibody. The analyte was then washed 3 times with 0.1% BSA-PBS using 200 μL per wash. […] The fluorescence in the wells was measured using a Cytofluor-II spectrofluorimeter with excitation at 530 nm and emission at 590 nm.
Conformational stability of the extracellular side of CCR5 after exposure to different detergents was determined by a sandwich ELISA using 2D7 and 1D4 antibodies. […] The amount of CCR5 bound to the 2D7 capture antibody was measured by detecting the binding of the second antibody-HRP-linked 1D4, and adding a fluorogenic HRP substrate in the microplate wells. […]

CCR5 = molecular target: T1, CCR5 (Homo sapiens, UniProt P51681); experiment: High-throughput G-protein activation assay (BODIPY-FL-GTPγS binding) with CCR5-NABBs; assay type: biochemical; conditions: 50 nM RANTES, CCR5 in NABBs
T1 construct: made in house; host or cells: HEK-293 cells stably expressing CCR5, immunopurified on 1D4-sepharose
T1 sequence (P51681 whole entry): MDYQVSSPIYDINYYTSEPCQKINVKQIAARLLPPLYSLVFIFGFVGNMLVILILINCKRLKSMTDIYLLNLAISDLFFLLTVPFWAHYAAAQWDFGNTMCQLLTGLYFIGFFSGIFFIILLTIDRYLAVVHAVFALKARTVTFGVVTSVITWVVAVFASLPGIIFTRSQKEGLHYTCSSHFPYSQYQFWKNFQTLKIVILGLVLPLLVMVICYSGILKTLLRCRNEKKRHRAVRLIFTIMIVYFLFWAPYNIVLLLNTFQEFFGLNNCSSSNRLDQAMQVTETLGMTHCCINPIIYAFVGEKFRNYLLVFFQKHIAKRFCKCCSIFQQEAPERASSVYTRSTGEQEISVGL
Method: A black, C-bottom 96-well plate was used for the high-throughput G-protein activation assay. 25 μL of purified G protein or its subunits were added to the microplate wells from a […] protein stock. The added proteins were either Gi1α subunit, Gi1α with transducin βγ subunits, or holotransducin (Gt), with 25 μl of buffer G1 without GDP. […] 100 μL of CCR5-NABB solution with and without RANTES were added to the respective wells and the microplate incubated at room temperature for 15 minutes. 60 μL of BODIPY-FL-GTPγS was added from a 1 μM stock to all wells using a multi-channel pipettor. The plate was shaken for 30 seconds, covered and incubated at room temperature for 5 minutes. The fluorescence in the wells was recorded using a Cytofluor II microplate reader with excitation wavelength at 485 nm and 20 nm bandpass, emission wavelength at 530 nm and 25 nm bandpass. The gain was set to 95 and 15 reads were integrated for each well. The fluorescence values from the wells containing BODIPY-FL-GTPγS and no G protein was subtracted from the rest of the data as background. The fluorescence values from wells containing the CCR5-NABBs with no RANTES was subtracted from RANTES-containing wells to determine the RANTES-specific response.
CCR5 activation of G protein was measured by binding of a fluorescently labeled nucleotide analog BODIPY-FL-GTPγS. […]

enhancement of B-GTPγS binding to the G protein, compared with unstimulated CCR5-NABBs (CCR5) | Molecule | 2D7/1D4 sandwich ELISA signal relative to sample 1 (2D7 capture antibody)
– | CCCCCCCCCCCCO[C@@H]1O[C@H](CO)[C@@H](O[C@H]2O[C@H](CO)[C@@H](O)[C@H](O)[C@H]2O)[C@H](O)[C@H]1O [DDM, n-dodecyl-beta-D-maltopyranoside] | 65%
up to 30% | RANTES: ligand used to stimulate CCR5 in NABBs | –

From patent US8999320B2, “Nanoscale bound bilayers, methods of use and production” (The Rockefeller University, priority 2008, dated 2015)
